Test results published in patent US8591878B2, “Therapeutic compounds” (Merck Sharp & Dohme Corp., priority 2008, dated 2013).
pIC50: −log10 of the molar value. Read-outs that look alike come from different tables or passages of the source.

Test system: subgenomic HCV replicon in Huh-7 cells
Test: Cell-Based HCV Replication Assay (replicon, NS3 Cell-ELISA)
Set-up: species or system hepatitis C virus (HCV)
Details: NS3 expression by Cell-ELISA
Text: Another suitable assay is the cellular Replicon or rheplisa assay described as follows:
Cell-Based HCV Replication Assay
Cell clones that stably maintain subgenomic HCV replicon were obtained by transfecting Huh-7 cells with an RNA replicon identical to I377neo/NS3-3′/wt described by V. Lohmann et al., 285 SCIENCE 110 (Jul. 2, 1999) (EMBL-GENBANK No. AJ242652), followed by selection with neomycin sulfate (G418). Viral replication was monitored by measuring the expression of the NS3 protein by an ELISA assay performed directly on cells grown in 96-well microtiter plates (Cell-ELISA) using the anti-NS3 monoclonal antibody 10E5/24 (as described in International Patent Application Publication WO 02/59321). Cells were seeded into 96 well plates at a density of 10^4 cells per well in a final volume of 0.1 ml of DMEM/10% FCS. Two hours after plating, 50 μl of DMEM/10% FCS containing a 3× concentration of inhibitor were added, cells were incubated for 96 hours and then fixed for 10 minutes with ice-cold isopropanol. Each condition was tested in duplicate and average absorbance values were used for calculations. The cells were washed twice with PBS, blocked with 5% non-fat dry milk in PBS+0.1% TRITON X-100+0.02% SDS (PBSTS) and then incubated o/n at 4° C. with the 10E5/24 mab diluted in Milk/PBSTS. After washing 5 times with PBSTS, the cells were incubated for 3 hours at room temperature with Fe-specific anti-mouse IgG conjugated to alkaline phosphatase (Sigma), diluted in Milk/PBSTS. After washing again as above, the reaction was developed with p-nitrophenyl phosphate disodium substrate (Sigma) and the absorbance at 405/620 nm read at intervals. For calculations, we used data sets where samples incubated without inhibitors had absorbance values comprised between 1 and 1.5. The inhibitor concentration that reduced by 50% the expression of NS3 (IC50) was calculated by fitting the data to the Hill equation, Fraction inhibition=1−(Ai−b)/(A0−b)=[I]^n/([I]+IC50) where: • Ai=absorbance value of HBI10 cells supplemented with the indicated inhibitor concentration. • A0=absorbance value of HBI10 cells incubated without inhibitor. • b=absorbance value of Huh-7 cells plated at the same density in the same microtiter plates and incubated without inhibitor. • n=Hill coefficient.

[1] = Hepatitis C virus, Huh-7 cells with subgenomic HCV replicon, 96 hours incubation, read-out: Cell based HCV Replication Assay-IC50
[2] = Hepatitis C virus, Huh-7 replicon cells, 96 hours, read-out: Cell-based HCV Replication Assay: IC50

Compound: C=C[C@@H]1C[C@]1(NC(=O)[C@@H]1C[C@@H]2CN1C(=O)[C@H](C1CCCC1)NC(=O)N1CC[C@@H](C1)OCCC/C=C/c1cc3ccccc3cc1O2)C(=O)NS(=O)(=O)C1CC1 [Example 37, (1R,13E,19S,25S,28S)-25-cyclopentyl-N-((1R,2S)-1-{[(cyclopropylsulfonyl)amino]carbonyl}-2-vinylcyclopropyl)-23,26-dioxo-2,18-dioxa-22,24,27-triazapentacyclo [25.2.1.1^19,22.0^3,12.0^5,10] hentriaconta-3(12),4,5,7,9,10,13-heptaene-28-carboxamide]
- pIC50 [1]: 8.40

Compound: C=C[C@@H]1C[C@]1(NC(=O)[C@@H]1C[C@@H]2CN1C(=O)[C@H](C1CCCCC1)NC(=O)N1CC(C1)OCCC/C=C/c1cc3c(cc(OCC)nc3cc1OC)O2)C(=O)NS(=O)(=O)C1CC1 [Example 39, (3R,5S,8S,18E)-8-cyclohexyl-N-((1R,2S)-1-{[(cyclopropylsulfonyl)amino]carbonyl}-2-vinylcyclopropyl)-25-ethoxy-21-methoxy-7,10-dioxo-2,14-dioxa-6,9,11,24-tetraazapentacyclo [18.6.2.1^3,6.1^11,13.0^23,27] triaconta-1(26),18,20,22,24,27-hexaene-5-carboxamide]
- pIC50 [1]: 7.72

Compound: C=C[C@@H]1C[C@]1(NC(=O)[C@@H]1C[C@@H]2CN1C(=O)[C@H](C1CCCC1)NC(=O)N1CC[C@@H](C1)OCCCc1ccc3nc(OCC)nc(c3c1)O2)C(=O)NS(=O)(=O)C1CC1 [Example 41, (3R,5S,8S,14S)-8-cyclopentyl-N-((1R,2S)-1-{[(cyclopropylsulfonyl)amino]carbonyl}-2-vinylcyclopropyl)-24-ethoxy-7,10-dioxo-2,15-dioxa-6,9,11,23,25-pentaazapentacyclo [17.6.2.1^3,6.1^11,14.0^22,26] nonacosa-1(25),19,21,23,26-pentaene-5-carboxamide]
- pIC50 [1]: 7.03

Compound: C=C[C@@H]1C[C@]1(NC(=O)[C@@H]1C[C@@H]2CN1C(=O)[C@H](C1CCCCC1)NC(=O)N1CC(C1)OCC/C=C/c1cc3c(cc(OCC)nc3cc1OC)O2)C(=O)NS(=O)(=O)C1CC1 [Example 44, (3R,5S,8S,17E)-8-Cyclohexyl-N-((1R,2S)-1-{[(cyclopropylsulfonyl)amino]carbonyl}-2-vinylcyclopropyl)-24-ethoxy-20-methoxy-7,10-dioxo-2,14-dioxa-6,9,11,23-tetraazapentacyclo[17.6.2.1^3,6.1^11,13.0^22,26]nonacosa-1(25),17,19,21,23,26-hexaene-5-carboxamide]
- pIC50 [2]: 8.22

Compound: C=C[C@@H]1C[C@]1(NC(=O)[C@@H]1C[C@@H]2CN1C(=O)[C@H](C1CCCCC1)NC(=O)N1CC(C1)OCCCCc1cc3c(cc(OCC)nc3cc1OC)O2)C(=O)NS(=O)(=O)C1CC1 [Example 45, (3R,5S,8S)-8-cyclohexyl-N-((1R,2S)-1-{[(cyclopropylsulfonyl)amino]carbonyl}-2-vinylcyclopropyl)-24-ethoxy-20-methoxy-7,10-dioxo-2,14-dioxa-6,9,11,23-tetraazapentacyclo[17.6.2.1^3,6.1^11,13.0^22,26]nonacosa-1(25),19,21,23,26-pentaene-5-carboxamide]
- pIC50 [2]: 8.22

Compound: (1R,13E,19S,25S,28S)-25- cyclohexyl-N-((1R,2S)-1- {[(cyclopropylsulfonyl)amino] carbonyl}-2- vinylcyclopropyl)-7-methoxy- 23,26-dioxo-2,18-dioxa- 4,22,24,27-tetraazapentacyclo [25.2.1.1^19,22.0^3,12.0^5,10] hentriaconta- 3(12),4,5,7,9,10,13-heptaene- 28-carboxamide [Example 42]
- pIC50 (Huh-7 cells with subgenomic HCV replicon, 96 hours incubation, read-out: Cell based HCV Replication Assay-IC50): 8.52
